What was measured:
[1] = tested on: PGC-1α; assay: PGC-1α acetylation status (immunoprecipitation, anti-acLys western) in C2C12 myotubes; type: cell-based, mouse; conditions: 10 nM, 6 hours
Method: C. ULMA induces PGC-1α deacetylation. C2C12 myotubes plated in 10 cm dish were treated with vehicle (0.1% vol/vol DMSO) or 10 nM ULMA in DMSO for 6 h. The cell lysates were then incubated with 5 μg anti-PGC-1α antibody (Calbiochem) for 12 h at 4° C. on a rotating wheel set at 10 RPM. 20 μl of protein A and protein G sepharose beads (Sigma; 1:1) was then added to the solution and the incubation was continued for another 2 h. The tubes were then centrifuged (1000 RPM) for 1 min and the supernatant was discarded. The pellets were washed 7 times. The beads were boiled in 50 μl 2× lammeli buffer for 5 min and cooled immediately on ice and following quick spin, the supernatants were resolved by denaturing polyacrylamide gel electrophoresis and western blotted with anti-acetylated lysine (acLys) antibody. Data represent one of three independent experiments displaying identical pattern. […]

[2] = tested on: Mouse stromal vascular fractions (SVF); assay: Brown adipose marker expression and mitochondrial copy number in mouse stromal vascular fractions; type: cell-based
Method: B. Mouse stromal vascular fractions (SVF) isolated from epididymal fat pads using collagenase digestion was differentiated in presence or absence of 10 nM ULMA and were analyzed for indicated mRNA expressions. **p<0.01, ***p<0.001 as determined by two tailed unpaired student's t-test.
C. Cells from identical set of experiments as described in FIGS. 5A and 5B or human SVFs prepared by collagenase digestions were analyzed by western blot analysis for determination of UCP-1, UCP-2 and PGC-1α protein level. Beta-actin was used as a loading control. Data is representative of three independent experiments.
D. Mouse SVFs differentiated in presence or absence of 10 nM ULMA were evaluated for mitochondrial copy number. Total cellular DNA was isolated from these cells by standard procedure (using a genomic DNA isolation kit; Macherey Nagel; according to manufacturer's instructions) and the mitochondrial DNA content was measured by QRT-PCR based measurement of mitochondrial cytochrome b (Cytb) by qPCR and normalized with genomic glycerol three phosphate dehydrogenase DNA level. Data represent mean±SEM from three independent experiments performed in triplicates. **p<0.01 as determined by two tailed unpaired student's t-test.
Mouse stromal vascular fractions (SVF) from epididymal fat pad were prepared using standard collagenase digestion method. Human SVF was prepared from human lipoaspirates (subcutaneous) collected from an obese individual undergoing liposuction following approval of Institutional Ethical Committee. To isolate SVFs, epidymal fat pads tissue or lipoaspirates were washed 6× in PBS and then were dispensed in tissue culture flasks. 0.2% sterile collagenase (Sigma) solution containing 1× antibiotic-antimycotic (Invitrogen) was then added to the adipose and the flasks were shaken vigorously for 10 seconds. The flasks were then incubated at 37° C. on a shaker for 2 hours with manual shaking of the flasks for 5-10 seconds every 15 min. After completion of digestion, FBS was added to the final concentration of 10% to the flasks, mixed and the collagenase digested tissue were then dispensed in 50 ml conical tubes and were centrifuged at 400 g for 10 min at room temp. The supernatant was discarded and the pellets constituting the SVFs were then reconstituted in culture medium (DMEM/F12 50:50+10% FBS) and plated in T25 tissue culture flasks and cultured for further experiments.
The SVFs were differentiated as for 3T3L-1 (described above), in presence of ULMA or vehicle (10 d for mouse SVF and 21 d for human SVF), following which they were lysed and used for QPCR or western blot analysis.
For western blot-based determination of UCP-1, UCP-2 and PGC-1α protein level, cells from an identical set of experiment were lysed and western blotted with UCP-1, UCP-2 (Abcam), PGC-1α(Calbiochem), or beta-actin (cell signaling technology; used as a loading control) as described above.

[3] = differentiated in presence of ULMA, 10 d

## O=C1c2c(cc(O)c([C@@H]3O[C@H](CO)[C@@H](O)[C@H](O)[C@H]3O)c2O)O[C@@H](c2ccc(O)c(O)c2)[C@@H]1O [ULMA, (2S,3S)-(+)-3′,4′,5,7-tetrahydroxydihydroflavonol-6-C-β-D-glucopyranoside]
[1]
  level of acetylated PGC-1α: decreased
[2]; 10 nM, 10 d differentiation
  PGC-1α mRNA level: significant increase
  PRDM16 mRNA level: significant increase
  UCP-1 mRNA level: significant increase
  UCP-2 mRNA level: significant increase
[2]; 10 nM, differentiated mouse SVFs
  mitochondrial DNA copy number (cytb level): significantly higher
[2]; [3]
  PGC-1α protein level: elevated
  UCPs protein level: elevated

From US20160193240A1, “Ulmoside-A: Useful For Prevention Or Cure Of Metabolic Diseases” (COUNCIL OF SCIENTIFIC & INDUSTRIAL RESEARCH, priority 2013, published 2016)
